Data: patent US8940756B2, “Dihydronaphthyridines and related compounds useful as kinase inhibitors for the treatment of proliferative diseases” (Deciphera Pharmaceuticals, Inc., priority 2012, dated 2015)

Columns and labels:
[1] = target: Phospho-KIT (Tyr719) in GIST48 cells (Homo sapiens, UniProt P10721); assay: GIST48 KIT Western Blot; type: cell-based; settings: 4 hours, read-out: pKIT suppression by western blot analysi GIST48
Protocol: (§1) GIST48, GIST430, and GIST882 cells were obtained from J. Fletcher (Brigham and Women's Hospital, Boston, Mass.). GIST T1 cells were obtained from B. Rubin (Cleveland Clinic, Cleveland, Ohio) and Professor Takahiro Taguchi (Kochi Medical School, Nankoku, Kochi, Japan). […] GIST430 cells were grown in Ham's F10 medium supplemented with 15% characterized fetal bovine serum (Invitrogen, Carlsbad, Calif.), 30 mg/L bovine pituitary extract (BD Biosciences, San Jose, Calif.), 0.5% Mito+ serum extender (BD Biosciences, San Jose, Calif.), 1 unit/mL penicillin G, 1 μg/ml streptomycin, and 0.29 mg/mL L-glutamine at 37° C., 5% CO2, 95% humidity. GIST T1 cells were grown in DMEM medium supplemented with 10% characterized fetal bovine serum (Invitrogen, Carlsbad, Calif.), 1 unit/mL penicillin G, 1 ng/ml streptomycin, and 0.29 mg/mL L-glutamine at 37° C., 5% CO2, and 95% humidity. Cells were allowed to expand until reaching 70-95% confluence at which point they were subcultured or harvested for assay use.
(§2) Two hundred fifty thousand cells were added per well in a 24-well tissue-culture treated plate. Cells were then incubated overnight at 37° C., 5% CO2, 95% humidity. Medium was aspirated, cells were washed with PBS, and serum-free RPMI1640 medium was added. A serial dilution of test compound was added to plates containing cells and plates were incubated for 4 hours at 37° C., 5% CO2, 95% humidity. Cells were washed with PBS, then lysed. Cell lysates were separated by SDS-PAGE and transferred to PVDF. Phospho-KIT (Tyr719) was detected using an antibody from Cell Signaling Technology (Beverly, Mass.), ECL Plus detection reagent (GE Healthcare, Piscataway, N.J.) and a Molecular Devices Storm 840 phosphorimager in fluorescence mode. Blots were stripped and probed for total KIT using an antibody from Santa Cruz Biotech (Santa Cruz, Calif.). IC50 values were calculated using Prism software (Graphpad, San Diego, Calif.).

[2] = target: Phospho-KIT (Tyr719) in GIST430 cells (Homo sapiens, UniProt P10721); assay: GIST430 KIT Western Blot; type: cell-based; settings: 4 hours, read-out: pKIT suppression by western blot analysi GIST430
Phospho-KIT (Tyr719) in GIST430 cells, sequence (P10721 with tags, fused parts or gaps DEL560-576/V654A, form open): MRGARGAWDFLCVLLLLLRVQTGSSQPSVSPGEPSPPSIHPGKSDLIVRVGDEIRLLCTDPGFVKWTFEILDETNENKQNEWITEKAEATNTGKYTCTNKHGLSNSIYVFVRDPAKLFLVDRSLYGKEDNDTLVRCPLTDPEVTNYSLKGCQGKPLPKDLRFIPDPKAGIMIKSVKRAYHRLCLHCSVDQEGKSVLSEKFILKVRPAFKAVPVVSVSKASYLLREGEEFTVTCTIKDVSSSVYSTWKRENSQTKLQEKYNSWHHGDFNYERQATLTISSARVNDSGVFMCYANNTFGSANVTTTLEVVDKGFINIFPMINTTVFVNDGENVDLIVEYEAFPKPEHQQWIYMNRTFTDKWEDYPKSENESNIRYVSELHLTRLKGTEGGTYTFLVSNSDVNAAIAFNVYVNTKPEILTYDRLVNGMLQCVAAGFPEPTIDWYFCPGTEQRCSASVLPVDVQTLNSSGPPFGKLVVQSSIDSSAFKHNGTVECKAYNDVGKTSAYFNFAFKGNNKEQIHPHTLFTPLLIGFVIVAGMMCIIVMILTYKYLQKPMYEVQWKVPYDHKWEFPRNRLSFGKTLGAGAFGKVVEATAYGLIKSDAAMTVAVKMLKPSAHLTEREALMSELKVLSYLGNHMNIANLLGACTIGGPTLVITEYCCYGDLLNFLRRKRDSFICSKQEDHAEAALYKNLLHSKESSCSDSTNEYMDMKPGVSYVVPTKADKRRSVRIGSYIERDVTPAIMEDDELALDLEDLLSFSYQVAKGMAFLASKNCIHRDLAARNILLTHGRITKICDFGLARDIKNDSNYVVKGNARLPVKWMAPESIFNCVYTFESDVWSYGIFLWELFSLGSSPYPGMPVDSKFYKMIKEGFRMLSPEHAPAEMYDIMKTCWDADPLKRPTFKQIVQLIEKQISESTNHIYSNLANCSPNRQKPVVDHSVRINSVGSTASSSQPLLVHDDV
Protocol: as §1
as §2, with “One” for “Two”, “Ham's F10” for “RPMI1640”

Phospho-KIT (Tyr719) in GIST48 cells, sequence (P10721 whole entry V560D/D820A, form open): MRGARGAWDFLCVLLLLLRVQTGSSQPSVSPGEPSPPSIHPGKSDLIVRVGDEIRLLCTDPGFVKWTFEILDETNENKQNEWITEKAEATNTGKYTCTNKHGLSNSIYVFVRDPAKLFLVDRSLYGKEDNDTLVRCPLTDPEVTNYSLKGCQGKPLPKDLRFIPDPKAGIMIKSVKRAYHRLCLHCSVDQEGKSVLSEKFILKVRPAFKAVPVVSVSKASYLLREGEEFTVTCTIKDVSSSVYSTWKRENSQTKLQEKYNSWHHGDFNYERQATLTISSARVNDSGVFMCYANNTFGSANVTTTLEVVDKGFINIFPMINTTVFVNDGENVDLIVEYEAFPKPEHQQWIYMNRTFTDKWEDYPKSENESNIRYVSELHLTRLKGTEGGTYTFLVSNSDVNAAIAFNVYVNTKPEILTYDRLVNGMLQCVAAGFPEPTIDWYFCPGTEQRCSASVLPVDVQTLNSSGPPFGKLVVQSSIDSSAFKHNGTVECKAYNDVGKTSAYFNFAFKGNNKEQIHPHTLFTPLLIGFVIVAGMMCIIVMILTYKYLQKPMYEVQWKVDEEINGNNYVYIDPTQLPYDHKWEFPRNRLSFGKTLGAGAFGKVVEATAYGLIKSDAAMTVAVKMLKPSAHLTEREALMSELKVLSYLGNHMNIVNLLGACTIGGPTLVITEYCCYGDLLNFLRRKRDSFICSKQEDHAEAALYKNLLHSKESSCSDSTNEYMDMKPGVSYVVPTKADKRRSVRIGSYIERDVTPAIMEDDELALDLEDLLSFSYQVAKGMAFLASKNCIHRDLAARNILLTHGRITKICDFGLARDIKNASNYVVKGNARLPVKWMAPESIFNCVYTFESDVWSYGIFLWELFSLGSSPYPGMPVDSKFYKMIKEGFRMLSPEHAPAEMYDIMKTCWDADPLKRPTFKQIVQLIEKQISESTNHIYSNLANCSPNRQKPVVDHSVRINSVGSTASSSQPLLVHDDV

Row | IC50 [1] [nM] | IC50 [2] [nM] | Compound
1 | 100 to 1000 | 10 to 100 | CCn1c(=O)c(-c2cc(NC(=O)Nc3cc(F)cc(F)c3)c(F)cc2C)cc2cnc(NC(=O)N(C)C)cc21 [Example 108, 3-(3-(5-(3-(3,5-difluorophenyl)ureido)-4-fluoro-2-methylphenyl)-1-ethyl-2-oxo-1,2-dihydro-1,6-naphthyridin-7-yl)-1,1-dimethylurea]
2 | > 1000 | 10 to 100 | CCn1c(=O)c(-c2cc(NC(=O)Nc3cc(F)cc(F)c3)c(F)cc2C)cc2cnc(NC)cc21 [Example 60, 1-(3,5-difluorophenyl)-3-(5-(1-ethyl-7-(methylamino)-2-oxo-1,2-dihydro-1,6-naphthyridin-3-yl)-2-fluoro-4-methylphenyl)urea]
3 | 10 to 100 | 10 to 100 | CCn1c(=O)c(-c2cc(NC(=O)Nc3ccccc3)c(F)cc2Cl)cc2cnc(NC(=O)OC)cc21 [Example 73, methyl (3-(2-chloro-4-fluoro-5-(3-phenylureido)phenyl)-1-ethyl-2-oxo-1,2-dihydro-1,6-naphthyridin-7-yl)carbamate]
4 | < 10 | – | CCn1c(=O)c(-c2cc(NC(=O)Nc3ccccc3)c(F)cc2C)cc2cnc(NC(=O)N3CCC3)cc21 [Example 110, N-(1-ethyl-3-(4-fluoro-2-methyl-5-(3-phenylureido)phenyl)-2-oxo-1,2-dihydro-1,6-naphthyridin-7-yl)azetidine-1-carboxamide]
5 | 100 to 1000 | 10 to 100 | CCn1c(=O)c(-c2cc(NC(=O)Nc3ccccc3)c(F)cc2Br)cc2cnc(NCCOC)cc21 [Example 51, 1-(4-bromo-5-(1-ethyl-7-(2-methoxyethylamino)-2-oxo-1,2-dihydro-1,6-naphthyridin-3-yl)-2-fluorophenyl)-3-phenylurea]
6 | > 1000 | 10 to 100 | CCn1c(=O)c(-c2cc(NC(=O)Nc3ccccc3)c(F)cc2C)cc2cnc(NC(=O)N(C)C)cc21 [Example 101, 3-(1-ethyl-3-(4-fluoro-2-methyl-5-(3-phenylureido)phenyl)-2-oxo-1,2-dihydro-1,6-naphthyridin-7-yl)-1,1-dimethylurea]
7 | 100 to 1000 | 10 to 100 | CCn1c(=O)c(-c2cc(NC(=O)Nc3ccccc3)c(F)cc2Br)cc2cnc(N)cc21 [Example 57, 1-(5-(7-amino-1-ethyl-2-oxo-1,2-dihydro-1,6-naphthyridin-3-yl)-4-bromo-2-fluorophenyl)-3-phenylurea]
8 | > 1000 | 10 to 100 | CCn1c(=O)c(-c2cc(NC(=O)Nc3cc(F)cc(F)c3)c(F)cc2Cl)cc2cnc(NC)cc21 [Example 55, 1-(4-chloro-5-(1-ethyl-7-(methylamino)-2-oxo-1,2-dihydro-1,6-naphthyridin-3-yl)-2-fluorophenyl)-3-(3,5-difluorophenyl)urea]
9 | > 1000 | 10 to 100 | CCn1c(=O)c(-c2cc(NC(=O)Nc3cc(F)ccc3F)c(F)cc2C)cc2cnc(NC)cc21 [Example 61, 1-(2,5-difluorophenyl)-3-(5-(1-ethyl-7-(methylamino)-2-oxo-1,2-dihydro-1,6-naphthyridin-3-yl)-2-fluoro-4-methylphenyl)urea]
10 | 100 to 1000 | 10 to 100 | CCn1c(=O)c(-c2cc(NC(=O)Nc3cc(F)cc(F)c3)c(F)cc2F)cc2cnc(NC)cc21 [Example 63]
11 | 100 to 1000 | 10 to 100 | CCn1c(=O)c(-c2cc(NC(=O)Nc3cc(F)ccc3F)c(F)cc2Cl)cc2cnc(NC)cc21 [Example 68, 1-(4-chloro-5-(1-ethyl-7-(methylamino)-2-oxo-1,2-dihydro-1,6-naphthyridin-3-yl)-2-fluorophenyl)-3-(2,5-difluorophenyl)urea]
12 | 100 to 1000 | 10 to 100 | CCn1c(=O)c(-c2cc(NC(=O)Nc3cccc(F)c3)c(F)cc2C)cc2cnc(N)cc21 [Example 58, 1-(5-(7-amino-1-ethyl-2-oxo-1,2-dihydro-1,6-naphthyridin-3-yl)-2-fluoro-4-methylphenyl)-3-(3-fluorophenyl)urea]
13 | 100 to 1000 | < 10 | CCn1c(=O)c(-c2cc(NC(=O)Nc3cccc(F)c3)c(F)cc2Br)cc2cnc(NC)cc21 [Example 50, 1-(4-bromo-5-(1-ethyl-7-(methylamino)-2-oxo-1,2-dihydro-1,6-naphthyridin-3-yl)-2-fluorophenyl)-3-(3-fluorophenyl)urea]
14 | 10 to 100 | 10 to 100 | CNc1cc2c(cn1)cc(-c1cc(NC(=O)Nc3cccc(F)c3)c(F)cc1Cl)c(=O)n2C(C)C [Example 77, 1-(4-chloro-2-fluoro-5-(1-isopropyl-7-(methylamino)-2-oxo-1,2-dihydro-1,6-naphthyridin-3-yl)phenyl)-3-(3-fluorophenyl)urea]

Continued, compound first:

Row | Compound | IC50 [1] [nM] | IC50 [2] [nM]
15 | CCn1c(=O)c(-c2cc(NC(=O)Nc3cccc(F)c3)c(F)cc2C)cc2cnc(NC)cc21 [Example 44, 1-(5-(1-ethyl-7-(methylamino)-2-oxo-1,2-dihydro-1,6-naphthyridin-3-yl)-2-fluoro-4-methylphenyl)-3-(3-fluorophenyl)urea] | 10 to 100 | < 10
16 | CNc1cc2c(cn1)cc(-c1cc(NC(=O)Nc3csc4ccccc34)c(F)cc1F)c(=O)n2C [Example 14, 1-(benzo[b]thiophen-3-yl)-3-(2,4-difluoro-5-(1-methyl-7-(methylamino)-2-oxo-1,2-dihydro-1,6-naphthyridin-3-yl)phenyl)urea] | < 10 | 10 to 100
17 | CCn1c(=O)c(-c2cc(NC(=O)Nc3cccc4ccccc34)c(F)cc2Cl)cc2cnc(NC)cc21 [Example 6, 1-(4-chloro-5-(1-ethyl-7-(methylamino)-2-oxo-1,2-dihydro-1,6-naphthyridin-3-yl)-2-fluorophenyl)-3-(naphthalen-1-yl)urea] | < 10 | < 10
18 | CCn1c(=O)c(-c2cc(NC(=O)Nc3cccc(F)c3F)c(F)cc2Cl)cc2cnc(NC)cc21 [Example 4, 1-(4-chloro-5-(1-ethyl-7-(methylamino)-2-oxo-1,2-dihydro-1,6-naphthyridin-3-yl)-2-fluorophenyl)-3-(2,3-difluorophenyl)urea] | 10 to 100 | 10 to 100
19 | CNc1cc2c(cn1)cc(-c1cc(NC(=O)Nc3ccccc3)c(F)cc1Cl)c(=O)n2C(C)C [Example 22, 1-(4-chloro-2-fluoro-5-(1-isopropyl-7-(methylamino)-2-oxo-1,2-dihydro-1,6-naphthyridin-3-yl)phenyl)-3-phenylurea] | 10 to 100 | 10 to 100
20 | CCn1c(=O)c(-c2cc(NC(=O)Nc3cccc(F)c3)c(F)cc2Cl)cc2cnc(N)cc21 [Example 20, 1-(5-(7-amino-1-ethyl-2-oxo-1,2-dihydro-1,6-naphthyridin-3-yl)-4-chloro-2-fluorophenyl)-3-(3-fluorophenyl)urea] | 100 to 1000 | 10 to 100
21 | CCn1c(=O)c(-c2cc(NC(=O)Nc3cccc4ccccc34)c(F)cc2C)cc2cnc(NC)cc21 [Example 1, 1-(5-(1-ethyl-7-(methylamino)-2-oxo-1,2-dihydro-1,6-naphthyridin-3-yl)-2-fluoro-4-methylphenyl)-3-(naphthalen-1-yl)urea] | 10 to 100 | < 10
22 | CCn1c(=O)c(-c2cc(NC(=O)Nc3ccccc3)c(F)cc2F)cc2cnc(NCCOC)cc21 [Example 36, 1-(5-(1-ethyl-7-(2-methoxyethylamino)-2-oxo-1,2-dihydro-1,6-naphthyridin-3-yl)-2,4-difluorophenyl)-3-phenylurea] | 100 to 1000 | 100 to 1000
23 | CCn1c(=O)c(-c2cc(NC(=O)Nc3cccc(F)c3)c(F)cc2Cl)cc2cnc(NC)cc21 [Example 24, 1-[4-chloro-5-(1-ethyl-7-methylamino-2-oxo-1,2-dihydro-[1,6]naphthyridin-3-yl)-2-fluoro-phenyl]-3-(3-fluoro-phenyl)-urea] | 10 to 100 | < 10
24 | CCn1c(=O)c(-c2cc(NC(=O)Nc3ccccc3)ccc2Cl)cc2cnc(NC)cc21 [Example 33, 1-(4-chloro-3-(1-ethyl-7-(methylamino)-2-oxo-1,2-dihydro-1,6-naphthyridin-3-yl)phenyl)-3-phenylurea] | – | 10 to 100
